# pIC50: −log10 of the molar value. Read-outs that look alike come from different tables or passages of the source.
# Assays:
# ETA receptor = molecular target: T1, ETA receptor (Homo sapiens, UniProt P25101); assay: Endothelin binding inhibition test on human endothelin receptors ([125I]endothelin-1), ETA
# T1 construct: host or cells: human neuroblastoma SK-N-MC cells (membranes)
# T1 sequence (P25101 21-427): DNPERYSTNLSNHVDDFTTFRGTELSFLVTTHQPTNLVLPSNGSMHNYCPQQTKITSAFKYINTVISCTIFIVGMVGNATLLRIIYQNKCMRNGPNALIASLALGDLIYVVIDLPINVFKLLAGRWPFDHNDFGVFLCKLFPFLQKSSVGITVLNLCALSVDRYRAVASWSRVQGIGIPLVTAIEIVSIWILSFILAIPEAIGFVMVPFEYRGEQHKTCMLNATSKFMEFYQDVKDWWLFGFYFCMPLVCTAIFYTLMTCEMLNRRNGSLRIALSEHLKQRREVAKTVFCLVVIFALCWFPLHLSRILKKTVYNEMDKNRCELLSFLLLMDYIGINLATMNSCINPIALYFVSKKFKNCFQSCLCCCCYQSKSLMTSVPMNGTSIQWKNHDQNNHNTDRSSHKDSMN
# Protocol: (§1) Endothelin Binding Inhibition Test on Human Endothelin Recepters
# The human neuroblastoma SK-N-MC cells or the human Giradi heart cells, purchased from Dainippon Seiyaku (Japan), were cultured in minimal essential medium supplemented with fetal calf serum. The cells were collected and homogenized in 10 mM MOPS buffer (pH 7.4) containing 154 mM NaCl, 10 mM KCl, 0.8 mM CaCl2 and 20% sucrose at 4° C. using a polytron homogenizer. The homogenate was then centrifuged at 10,000×g for 15 minutes. The supernatant was centrifuged at 100,000×g for 1 hour at 4° C. Then the pellet was washed with 5 mM HEPES/Tris buffer (pH 7.4). The resulting membranes (50 μl) were mixed with [^125I]endothelin-1 (20 pM) and 4 μl of DMSO solution of a test compound in 67 mM Tris/HCl buffer (pH 7.4) containing 0.13 mM phenylmethanesulfonyl fluoride, 1.3 μM pepstatin, 2.7 μM leupeptin, 1.3 mM 1,10-phenanthroline, 1.3 mM EDTA, 13 μM CaCl2, 13 μM MgCl2 and 0.13% bovine serum albumin (BSA) in a total volume of 0.35 ml. After 4 hours incubation, cold 5 mM HEPES/Tris buffer (pH 7.4) containing 0.3% BSA (Buffer B) was added to the mixture, and free and bound [^125I]endothelin-1 were separated by filtration using Whatman GF/C glass fiber filters. After the filtration, the filters were washed with buffer B, and the radioactivity on the filters was measured in a γ counter. Nonspecific binding was determined in the presence of 200 nM endothelin-1.
# The concentration of a test compound of the present invention causing 50% inhibition of [^125I]endothelin-1 binding (IC50 value) was derived by the following [^125I]endothelin-1 binding inhibition D (%): [formula]
# (§2) where (A): for nonspecific binding including 200 nM of unlabeled endothelin-1 as the final concentration, (B): for total binding including labeled endothelin-1 without a test compound, and (C): for binding including labeled endothelin-1 with a concentration of a test compound, show the radioactivity.
# ETB receptor = molecular target: T2, ETB receptor (Homo sapiens, UniProt P24530); assay: Endothelin binding inhibition test on human endothelin receptors ([125I]endothelin-1), ETB; details: human cell membranes, 20 pM [125I]endothelin-1, 4 hours incubation
# T2 construct: host or cells: human Girardi heart cells (membranes)
# T2 sequence (P24530 27-442): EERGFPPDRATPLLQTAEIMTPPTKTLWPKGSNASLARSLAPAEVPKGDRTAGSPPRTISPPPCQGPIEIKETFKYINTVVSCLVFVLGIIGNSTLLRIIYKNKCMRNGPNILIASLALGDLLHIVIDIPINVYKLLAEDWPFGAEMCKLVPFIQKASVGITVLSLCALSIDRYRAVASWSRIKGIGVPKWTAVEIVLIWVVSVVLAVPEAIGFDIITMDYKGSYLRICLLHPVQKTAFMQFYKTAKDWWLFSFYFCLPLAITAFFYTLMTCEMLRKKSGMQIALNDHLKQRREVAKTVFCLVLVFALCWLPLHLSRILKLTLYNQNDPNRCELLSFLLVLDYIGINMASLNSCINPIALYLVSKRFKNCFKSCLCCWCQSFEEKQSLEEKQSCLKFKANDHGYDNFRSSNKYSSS
# Protocol: as §1
# The human neuroblastoma SK-N-MC cells or the human Giradi heart cells, purchased from Dainippon Seiyaku (Japan), were cultured in minimal essential medium supplemented with fetal calf serum. The cells were collected and homogenized in 10 mM MOPS buffer (pH 7.4) containing 154 mM NaCl, 10 mM KCl, 0.8 mM CaCl2 and 20% sucrose at 4° C. using a polytron homogenizer. The homogenate was then centrifuged at 10,000×g for 15 minutes. The supernatant was centrifuged at 100,000×g for 1 hour at 4° C. Then the pellet was washed with 5 mM HEPES/Tris buffer (pH 7.4). […] After the filtration, the filters were washed with buffer B, and the radioactivity on the filters was measured in a γ counter. Nonspecific binding was determined in the presence of 200 nM endothelin-1. […]
# as §2
# [1] = 10 mg/kg as sodium salt in water, SD male rats, bioassay
# Protocol: Concentration in Rat Plasma after Oral Administration
# SD male rats (8 weeks old, n=3) were subjected to cannulation of the carotid artery beforehand and after the recovery from the surgery, subjected to a fast of one night for the test. The sodium salt of the diastereomer A prepared in Example 14, which is a representative compound of the present invention, was dissolved in water, and the resulting aqueous solution (concentration: 2.0 mg/ml) was forcibly administrated into the stomach in an amount of 10 mg/kg by gavage. Before the administration and 1, 4 and 8 hours after the administration, 120 μl of the blood was withdrawn from the cannulae in the carotid arteries with the aid of heparin and the plasma was separated by cold centrifugation. 25 μl of portions of the plasma were deproteinized by adding 100 μl of ethanol and centrifuged (10,000×g, 10 minutes, 0° C.) under cooling. 80 μl portions of the supernatants was used for a bioassay of the concentration in plasma.
# [2] = test system: endothelin-induced contraction of iliac artery specimen
# Protocol: Effect on Endothelin-induced Contraction of Iliac Artery Specimen from Rabbit
# The iliac artery was excised from a rabbit and made into a spiral specimen of 1 mm wide and 10 mm long. The specimen was stripped of the endothelial cells and suspended in a 5 ml Magnus tube filled with Krebs-Henseleit solution saturated with a gas mixture of O2 (95%) and CO2 (5%), and the change in tension was isometrically measured and recorded.
# The effects of a compound of the present invention on the dose-response curve obtained by cumulative addition of endothelin-1 to the Magnus tube were investigated. A compound of the present invention was added to the Magnus tube at a final concentration of 10 μM 20 minutes before the addition of endothelin-1.
structure (smiles),measurement,setting,value
"COc1ccc([C@@H]2c3nc(NC(C)C)ccc3[C@H](c3ccc4c(c3)OC(F)(F)O4)[C@H]2C(=O)O)c(CC(C)C(=O)O)c1 (single isomer, unassigned; diastereomer a) [Diastereomer A of example 18]",binding-inhibitory activity to ETA receptor compared with ETB receptor (in words),ETA receptor,far higher binding-inhibitory activity to ETA receptor than to ETB receptor
same,pIC50,"ETA receptor; human cell membranes, 20 pM [125I]endothelin-1, 4 hours incubation",10.25
same,ETB/ETA,ETA receptor; ratio of IC50 values,ETB/ETA = 1400
same,pIC50,ETB receptor,7.11
"COc1ccc([C@@H]2c3nc(NC(C)C)ccc3[C@H](c3ccc4c(c3)OC(F)(F)O4)[C@H]2C(=O)O)c(CC(C)CO)c1 (single isomer, unassigned; diastereomer a) [diastereomer A prepared in Example 14]",concentration in rat plasma,[1]; 1 hour after oral administration,452 ng/mL
same,concentration in rat plasma,[1]; 4 hours after oral administration,124 ng/mL
same,concentration in rat plasma,[1]; 8 hours after oral administration,203 ng/mL
same,change in the maximum response to endothelin-1,[2]; concentrations from 0.1 μM to 10 μM,no change in the maximum response
same,effect on the dose-response curve for endothelin-1,"[2]; concentrations from 0.1 μM to 10 μM, added 20 minutes before endothelin-1",appreciably shifted the dose-response curve for endothelin-1 to the right
same,effect of the compound by itself on the artery specimen,[2]; without endothelin-1,no effect on the artery specimen by itself

# From patent US6413979B1, “Substituted 5-(2,2-difluoro-1,3-benzodioxol-5-yl) cyclopentenopyridine derivative” (Banyu Pharmaceutical Co., Ltd., priority 1998, dated 2002)
